# Where two headings read alike, the source gives them in different places.
# Test system: 134 cancer cell lines
# Experiment: Cell viability assay (ATPlite, 72 hours), IC50 on cancer cell line panel
smiles,measurement,setting,value
COc1cc2ncnc(Nc3ccc(F)c(Cl)c3)c2cc1NC(=O)/C=C/CN1CCCCC1 [dacomitinib],lower IC50 of the most sensitive cell line compared to the panel average,134 cell line panel,more than 1000 fold
same,IC50,"HEC-6, read-out: IC50 in cell proliferation assay, HEC-6 cell line (EGFR p.A289V)",2.51 µM
same,IC50,"Homo sapiens, 769-P, read-out: IC50 in cell proliferation assay, cell line 769-P",0.032 µM
same,IC50,"Homo sapiens, 786-0, read-out: IC50 in cell proliferation assay, cell line 786-O",3.04 µM
same,IC50,"Homo sapiens, A 172, read-out: IC50 in cell proliferation assay, cell line A-172",3.62 µM
same,IC50,"Homo sapiens, A204, read-out: IC50 in cell proliferation assay, cell line A-204",2.51 µM
same,IC50,"Homo sapiens, A498, read-out: IC50 in cell proliferation assay, cell line A-498",2.57 µM
same,IC50,"Homo sapiens, A549, read-out: IC50 in cell proliferation assay, cell line A-549",6.63 µM
same,IC50,"Homo sapiens, A704, read-out: IC50 in cell proliferation assay, cell line A-704",3.91 µM
same,IC50,"Homo sapiens, A-375, read-out: IC50 in cell proliferation assay, cell line A-375 (BRAF p.V600E)",3.46 µM
same,IC50,"Homo sapiens, A-427, read-out: IC50 in cell proliferation assay, cell line A-427",2.89 µM
same,IC50,"Homo sapiens, ACHN, read-out: IC50 in cell proliferation assay, cell line ACHN",0.011 µM
same,IC50,"Homo sapiens, AN3-CA, read-out: IC50 in cell proliferation assay, cell line AN3-CA (FGFR2 p.N549K)",3.75 µM
same,IC50,"Homo sapiens, ASPC1, read-out: IC50 in cell proliferation assay, cell line AsPC-1",5.82 µM
same,IC50,"Homo sapiens, AU565, read-out: IC50 in cell proliferation assay, cell line AU565 (ERBB2 amplification)",0.068 µM
same,IC50,"Homo sapiens, BT-20, read-out: IC50 in cell proliferation assay, cell line BT-20",5.62 µM
same,IC50,"Homo sapiens, BT-474, read-out: IC50 in cell proliferation assay, cell line BT-474 (ERBB2 amplification)",0.037 µM
same,IC50,"Homo sapiens, BT-549, read-out: IC50 in cell proliferation assay, cell line BT-549",3.68 µM
same,IC50,"Homo sapiens, BXPC-3, read-out: IC50 in cell proliferation assay, cell line BxPC-3",4.06 µM
same,IC50,"Homo sapiens, C-33-A, read-out: IC50 in cell proliferation assay, cell line C-33 A",0.04 µM
same,IC50,"Homo sapiens, CAL-27, read-out: IC50 in cell proliferation assay, cell line CAL-27",0.011 µM
same,IC50,"Homo sapiens, CCF-STTG1, read-out: IC50 in cell proliferation assay, cell line CCF-STTG1",5.61 µM
same,IC50,"Homo sapiens, CCRF-CEM, read-out: IC50 in cell proliferation assay, cell line CCRF-CEM",3.27 µM
same,IC50,"Homo sapiens, COLO 205, read-out: IC50 in cell proliferation assay, cell line COLO 205 (BRAF p.V600E)",4.28 µM
same,IC50,"Homo sapiens, COLO-829, read-out: IC50 in cell proliferation assay, cell line COLO 829 (BRAF p.V600E)",6.02 µM
same,IC50,"Homo sapiens, DLD-1, read-out: IC50 in cell proliferation assay, cell line DLD-1",3.24 µM
same,IC50,"Homo sapiens, DU-4475, read-out: IC50 in cell proliferation assay, cell line DU4475 (BRAF p.V600E)",5.24 µM
same,IC50,"Homo sapiens, Daoy, read-out: IC50 in cell proliferation assay, cell line Daoy",3.77 µM
same,IC50,"Homo sapiens, DoTc2-4510, read-out: IC50 in cell proliferation assay, cell line DoTc2 4510",0.012 µM
same,IC50,"Homo sapiens, EOL1, read-out: IC50 in cell proliferation assay, cell line EoL-1 (FIP1L1-PDGFRA)",0.72 µM
same,IC50,"Homo sapiens, FaDu, read-out: IC50 in cell proliferation assay, cell line FaDu",0.013 µM
same,IC50,"Homo sapiens, G-361, read-out: IC50 in cell proliferation assay, cell line G-361 (BRAF p.V600E)",4.11 µM
same,IC50,"Homo sapiens, HCC827, read-out: IC50 in cell proliferation assay, cell line HCC827 (EGFR exon19del)",0.00113 µM
same,IC50,"Homo sapiens, HCC4006, read-out: IC50 in cell proliferation assay, cell line HCC4006 (EGFR exon19del)",0.00119 µM
same,IC50,"Homo sapiens, HCT-15, read-out: IC50 in cell proliferation assay, cell line HCT 15",3.45 µM
same,IC50,"Homo sapiens, HCT-116, read-out: IC50 in cell proliferation assay, cell line HCT 116",2.3 µM
same,IC50,"Homo sapiens, HEC-1, read-out: IC50 in cell proliferation assay, HEC-1 cell line",1.91 µM
same,IC50,"Homo sapiens, HEC-1B, read-out: IC50 in cell proliferation assay, HEC-1-B cell line (EGFR p.A864V)",0.014 µM
same,IC50,"Homo sapiens, HL-60, read-out: IC50 in cell proliferation assay, HL-60 cell line",1.74 µM
same,IC50,"Homo sapiens, HT, read-out: IC50 in cell proliferation assay, HT cell line",3.76 µM
same,IC50,"Homo sapiens, HT-1080, read-out: IC50 in cell proliferation assay, HT-1080 cell line",2.79 µM
same,IC50,"Homo sapiens, Hs746T, read-out: IC50 in cell proliferation assay, Hs 746.T cell line (MET exon14skip + amplification)",3.12 µM
same,IC50,"Homo sapiens, Hs-578T, read-out: IC50 in cell proliferation assay, Hs 578T cell line",3.09 µM
same,IC50,"Homo sapiens, HuTu80, read-out: IC50 in cell proliferation assay, HuTu 80 cell line",4.06 µM
same,IC50,"Homo sapiens, J82, read-out: IC50 in cell proliferation assay, J82 cell line",3.95 µM
same,IC50,"Homo sapiens, Jurkat E6.1, read-out: IC50 in cell proliferation assay, Jurkat E6.1 cell line",3.18 µM
same,IC50,"Homo sapiens, K562, read-out: IC50 in cell proliferation assay, K-562 cell line",3.44 µM
same,IC50,"Homo sapiens, KATO III, read-out: IC50 in cell proliferation assay, KATO III cell line (FGFR2 amplification)",2.96 µM
same,IC50,"Homo sapiens, KG-1, read-out: IC50 in cell proliferation assay, KG-1 cell line (FGFR1OP2-FGFR1)",2.57 µM
same,IC50,"Homo sapiens, KLE, read-out: IC50 in cell proliferation assay, KLE cell line",3.44 µM
same,IC50,"Homo sapiens, KMS-11, read-out: IC50 in cell proliferation assay, KMS-11 cell line (FGFR3 p.Y373C)",3.54 µM
same,IC50,"Homo sapiens, KU812, read-out: IC50 in cell proliferation assay, Ku812 cell line",3.2 µM
same,IC50,"Homo sapiens, Kasumi 1, read-out: IC50 in cell proliferation assay, Kasumi-1 cell line (KIT p.N822K)",1.63 µM
same,IC50,"Homo sapiens, LC-2-ad, read-out: IC50 in cell proliferation assay, LC-2/ad cell line (CCDC6-RET)",2.89 µM
same,IC50,"Homo sapiens, LNCaP-Clone-FGC, read-out: IC50 in cell proliferation assay, LNCaP clone FGC cell line",7.97 µM
same,IC50,"Homo sapiens, LS174T, read-out: IC50 in cell proliferation assay, LS174T cell line",2.67 µM
same,IC50,"Homo sapiens, LS-411N, read-out: IC50 in cell proliferation assay, LS411N cell line (BRAF p.V600E)",4.24 µM
same,IC50,"Homo sapiens, LoVo, read-out: IC50 in cell proliferation assay, LoVo cell line",4.3 µM
same,IC50,"Homo sapiens, MCF7, read-out: IC50 in cell proliferation assay, MCF-7 cell line",12.9 µM
same,IC50,"Homo sapiens, MDA-MB-231, read-out: IC50 in cell proliferation assay, MDA-MB-231 cell line",3.69 µM
same,IC50,"Homo sapiens, MDA-MB-453, read-out: IC50 in cell proliferation assay, MDA-MB-453 cell line",3.25 µM
same,IC50,"Homo sapiens, MDA-MB-468, read-out: IC50 in cell proliferation assay, MDA-MB-468 cell line",0.033 µM
same,IC50,"Homo sapiens, MG-63, read-out: IC50 in cell proliferation assay, MG-63 cell line",4 µM
same,IC50,"Homo sapiens, MIA PaCa-2, read-out: IC50 in cell proliferation assay, MIA PaCa-2 cell line",3.93 µM
same,IC50,"Homo sapiens, MKN-45, read-out: IC50 in cell proliferation assay, MKN45 cell line (MET amplification)",4.25 µM
same,IC50,"Homo sapiens, MOLM-13, read-out: IC50 in cell proliferation assay, MOLM-13 cell line (FLT3 ITD)",1.17 µM
same,IC50,"Homo sapiens, MOLT-4, read-out: IC50 in cell proliferation assay, MOLT-4 cell line",3.64 µM

# Reference: article PMC9516332 (Frontiers in Oncology, 2022)
